Columns and labels:
[1] = system: neonatal rat cardiomyocytes; experiment: Morphometric analysis of cardiomyocytes (anti-sarcomeric α-actinin staining); assay type: cell-based; parameters: Area / Major axis / Minor axis / Major/Minor: dose or concentration left out as unconfirmed; conditions: for Area / Major axis / Major/Minor / Minor axis: virus moi 100, PE or LIF (1000 units/ml) where indicated, mean ± SD
ERK5 [2] = experiment: ERK5 immunoprecipitation kinase assay (GST-MEF2C substrate) after treatment of cardiomyocytes; assay type: cell-based; conditions: at 60 min; 0.3M sorbitol or 200 μM H2O2; serum-deprived neonatal rat cardiomyocytes
Protocol: Top, ERK5 was immunoprecipitated from 200 μg of cellular lysate with an antibody specific for the carboxyl-terminal 20 amino acids. Kinase assays were performed with immunoprecipitated ERK5 using GST-MEF2C substrate in the presence of [γ-^32P]-ATP. GST-MEF2C phosphorylation was detected by autoradiography after SDS-PAGE. Middle, immunoblotting was performed on immunoprecipitated material using rabbit anti-ERK5 antibody. Bottom, levels of ^32P-phosphorylated GST-MEF2C were quantitated with a Phosphor Imager.
Following incubation for 30 min at 30° C., samples were separated by SDS-PAGE and transferred to a polyvinylidene difluoride (PVDF) membrane. The level of ^32P-labeled GST-fusion protein on the membrane was analyzed using a Phosphor Imager (Molecular Dynamics). The membrane was then immunoblotted with anti-ERK5 rabbit polyclonal antibody (StressGen) at a final concentration of 150 ng/ml and proteins were visualized using a chemiluminescence system (Santa Cruz).
Eighteen hours after plating, cells were changed into serum-free media and either incubated for an additional forty-eight hours prior to treatment with hypertrophic agents or infected with adenovirus at a multiplicity of infection of 100.
Following treatment, cardiomyocytes were harvested and ERK5 immunoprecipitation (IP) kinase assays were performed with a GST-MEF2C substrate.

ERK5 [3] = conditions: Kamakura et al., 1999; cited from earlier work
skeletal α-actin = experiment: RNA dot blot, fetal gene expression in cardiomyocytes: skeletal α-actin; assay type: cell-based; conditions: Rattus norvegicus, Cardiomyocyte; Adβ-gal-infected cells treated with LIF (1000 units/ml) or PE (50 μM) 24 hours; relative to uninfected untreated cells
Protocol: FIGS. 4A-B. MEK5 signaling contributes to the regulation of cardiomyocyte fetal gene expression by PE and LIF. (FIG. 4A) Cardiomyocytes were either not infected (−) or infected with MEK5WT, MEK5KM or β-gal adenoviruses at an moi of 20 and serum-deprived. Thirty-six hours post-infection, cells were either not treated or treated with 50 μM PE (black bar) or 1000 units/ml LIF (white bar) for an additional 24 hours. RNA was prepared and used for dot blots with oligonucleotide probes specific for skeletal α-actin, ANF or BNP. Signal intensity was quantitated using a Phosphor Imager. The average fold induction±SD of three independent experiments is shown. “-fold” induction is relative to uninfected cells without PE or LIF treatment. (FIG. 4B) Cardiomyocytes were either not infected or infected with MEK5DD or β-gal adenoviruses at an moi of 20 and serum-deprived. Forty-eight hours post-infection, the cells were harvested and RNA was prepared. Transcript levels for α-skeletal actin, ANF or BNP were determined as described in FIG. 4A. […]
To determine whether elevated MEK5 could also transduce signals that regulate fetal gene expression, the inventors treated cardiomyocytes infected with AdMEK5WT, AdMEK5KM or Ad[…]-gal with LIF or PE and analyzed expression of atrial natriuretic factor (ANF), brain natriuretic peptide (BNP) and skeletal α-actin (FIG. 4A). […]

| Compound | Area [1] [μm^2] | Major axis [1] [μm] | Major/Minor [1] | Minor axis [1] [μm] | activation of ERK5 (phosphorylation of GST-MEF2C) (ERK5 [2]) [fold] | inhibition of activation of ERK5 (ERK5 [3]) | other results |
| --- | --- | --- | --- | --- | --- | --- | --- |
| LIF: IL-6 family cytokine, leukemia inhibitory factor | 3586 ± 1090 | 144 ± 36 | 5.06 | 33 ± 12 | – | – | cardiomyocyte elongation (morphology) ([1]; α-actinin staining): induced dramatic elongation |
| OC[C@@H](O)[C@@H](O)[C@H](O)[C@@H](O)CO [sorbitol] | – | – | – | – | 8 | – | – |
| N#CC(=C(/N)Sc1ccccc1N)/C(C#N)=C(\N)Sc1ccccc1N [U0126] | – | – | – | – | – | inhibit activation of ERK5 | – |
| COc1cccc(-c2cc(=O)c3ccccc3o2)c1N [PD098059] | – | – | – | – | – | inhibit activation of ERK5 | – |
| CNC[C@H](O)c1cccc(O)c1 [PE, phenylephrine] | 5745 ± 1560 | 110 ± 20 | 1.71 ± 0.37 | 66 ± 12 | – | – | fold induction at 50 µM (skeletal α-actin): 4 to 5 |
| OO [H2O2] | – | – | – | – | 5 | – | – |
